Values belong to the compound of their own block, whether it stands above or below them.
Legend:
human HM74a [1] = biological target: T1, human HM74a (Homo sapiens, UniProt Q8TDS4); test: cAMP assay; format: cell-based; design: expressed in transfected cells; settings: CHO cells stably transfected with human HM74a; 5 μM forskolin; inhibition relative to DMSO controls
Protocol: CHO cells stably transfected with human HM74a were seeded at 7,500 cells/well in a 96-well plate in HAMS F12 medium with 10% FBS. The plate was incubated overnight at 37° C. and 5% CO2. The test compounds were prepared in a stimulation buffer containing 1×HANKS, 20 mM HEPES, 5 μM forskolin, and 0.25 mM IBMX. The media from the cell plate was removed before adding 30 μL of the test compounds. After 30 minute incubation at 37° C. and 5% CO2, the cAMP level was assayed using HitHunter cAMP XS assay kit (DiscoverX, CA). IC50 determinations were based on compound inhibition relative to DMSO controls.

human HM74a [2] = biological target: T1, human HM74a; test: GTPγS recruitment assay; format: biochemical; design: expressed in transfected cells; host or cells: HEK293 (transient transfection; membranes); settings: membranes of HEK293 cells transfected with human HM74a and Gα0; 35S GTPγS
Protocol: Membranes were prepared from HEK293 cells transiently transfected with human HM74a and Gα0 protein. Assays were performed in 384-well format in a volume of 50 μL per assay point. Serial dilutions of compounds were prepared in the assay buffer (20 mM HEPES pH. 7.4, 100 mM NaCl, 10 mM MgCl2, 10 mg/L saponin and 10 μM GDP) and mixed with membranes (2 μg per assay point) and ^35S GTPγS (Amersham, 0.3 nM) in the assay buffer. The mixtures were incubated at room temperature for 30 mM and wheat germ agglutinin SPA beads (Amersham) (0.2 mg per assay point) in the assay buffer were added. After […] incubation with agitation, plates were centrifuged at 1500 g for 5 mM and bound ^35S GTPγS was determined by counting on a TopCount scintillation counter. […] For example, the compound of Example 1 has an EC50 of 80 nM in this assay.

mature adipocytes = test: Adipocyte lipolysis assay; format: cell-based; settings: glycerol in supernatant after overnight culture with IBMX (100 μM), relative to DMSO controls
Protocol: Preadipocytes purchased from Zen Bio were plated at 8.7×10 ^4 cells/well in 96-well plates, differentiated for 14 days and mature adipocytes assayed during days 15 through 21. Adipocyte maturation is assessed by the presence of rounded cells with large lipid droplets in the cytoplasm. Following maturation, cells were washed and incubated overnight with IBMX (100 μM) and various concentrations of compound diluted in assay buffer containing a final DMSO concentration of 0.1%. After overnight culture, the glycerol concentration in the supernatants was determined with the Lipolysis Assay Kit purchased from Zen-Bio. Absorbance at 540 nm is directly proportional to the glycerol concentration in the sample. IC50 determinations were based on compound inhibition relative to DMSO controls.

[3] = cited from earlier work

T1 sequence (Q8TDS4 whole entry): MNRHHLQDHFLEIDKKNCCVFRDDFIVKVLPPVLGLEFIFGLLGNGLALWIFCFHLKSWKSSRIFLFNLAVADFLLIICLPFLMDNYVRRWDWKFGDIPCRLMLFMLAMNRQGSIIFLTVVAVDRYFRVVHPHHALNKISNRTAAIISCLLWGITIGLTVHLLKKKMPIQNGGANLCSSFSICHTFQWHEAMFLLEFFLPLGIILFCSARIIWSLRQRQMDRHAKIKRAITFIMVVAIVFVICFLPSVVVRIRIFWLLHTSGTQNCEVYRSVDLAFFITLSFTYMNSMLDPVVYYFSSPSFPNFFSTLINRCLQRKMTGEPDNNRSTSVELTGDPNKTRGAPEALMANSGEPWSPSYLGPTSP

IC50 (human HM74a [1]): 20 nM | EC50 (human HM74a [2]): 80 nM
SMILES: CCCCCn1c2nc(C(F)(F)F)[nH]c2c(=O)n2c(C)nnc12 [Example 1, 3-methyl-9-pentyl-7-(trifluoromethyl)-6,9-dihydro-5H-[1,2,4]triazolo[4,3-a]purin-5-one]

IC50 (mature adipocytes): 37 nM
SMILES: CCCCCn1c2nc(Br)[nH]c2c(=O)n2c(CCc3nc(Cc4ccncc4)no3)nnc12 [Example 77, 7-bromo-9-pentyl-3-{2-[3-(pyridine-4-ylmethyl)-1,2,4-oxadiazol-5-yl]ethyl}-6,9-dihydro-5H-[1,2,4]triazolo[4,3-a]purin-5-one]

SMILES: O=C1[C@H](CC[C@H](O)c2ccc(F)cc2)[C@@H](c2ccc(O)cc2)N1c1ccc(F)cc1 [Ezetimibe]
maximal LDL reductions ([3]; co-formulated with a statin): exceed 60% | lowers LDL ([3]; monotherapy): 20%

SMILES: O=C(O)c1cccnc1 [Nicotinic acid, nicotinic acid]
lowering circulating plasma LDL ([3]; human, in vivo): 16% | lowering triglycerides ([3]; human, in vivo): 38% | raising HDL levels ([3]; human, in vivo): 20-30%
